Test results as given in PMC11053488, “Influence of Aza-Glycine Substitution on the Internalization of Penetratin” (Pharmaceutics, 2024).

Legend:
A-431 cells [1] = test: Cellular uptake of Cf-labelled peptides by flow cytometry; assay type: cell-based; settings: 5 µM, 90 min, 37 °C, compared with Pen(desMet)
Description: The cells were treated with a solution of peptides at 5 µM concentration at 37 °C for 90 min. The measured fluorescence values were corrected with the autofluorescence of the untreated cells. To determine the toxicity of the conjugates, the live/dead cell ratio was calculated.
Figure 2 Comparison of the cellular uptake of the labelled penetratin derivatives into A-431 cells. Cells were incubated with 5 µM peptide solution for 90 min at 37 °C. The fluorescence intensity of the cells was determined by flow cytometry. The fluorescence intensity is relative to Pen(desMet) at 5 µM (100%). Data represent the mean ± standard deviation (SD). Any significant difference to the control was measured using the Student’s t test.

A-431 cells [2] = test: Cellular uptake after pretreatment with endocytosis inhibitors or ATP depletion, flow cytometry; settings: then peptide 5 µM 90 min; for Cellular uptake with NaN3 and DOG, % of the untreated control: NaN3 500 µM and 2-deoxyglucose 250 mM pretreatment 30 min (ATP depletion), mean
Description: The cells were incubated for 24 h at 37 °C. The cells were treated with a serum-free medium as a negative control and with peptide solutions in 5 µM concentration in a serum-free medium for 90 min. After the incubation, the cells were washed, and 100 µL of trypsin was applied for 10 min to eliminate peptides adhered to the membrane and to detach the cells from the plates. Trypsin activity was stopped by adding 800 µL of HPMI buffer (glucose, NaHCO3, NaCl, HEPES, KCl, MgCl2, CaCl2, Na2HPO4·2H2O) containing 10% fetal bovine serum. Cells were then transferred from the plates to FACS tubes. Centrifugation of the cells took place at 216× g at 4 °C for 5 min, and the supernatant was removed. Resuspension of the cells was performed by 250 µL HPMI, followed by fluorescence intensity measurements using a flow cytometer (BDLSR II, BD Bioscience, San Jose, CA, USA). The analysis of the data was performed using FACSDiVa 5.0 software. To study the effect of inhibitors, cells were pretreated with the solution of inhibitors for 30 min, followed by the treatment with the peptide solution at 5 µM for 90 min. Inhibition of macropinocytosis was performed by using 5-(N-Ethyl-N-isopropyl)amiloride (EIPA) (500 µM) [46], of clathrin-mediated endocytosis by using chlorpromazine (CPZ) (300 µM) [47]. The caveolae/lipid raft-mediated endocytosis was prevented with methyl-β-cyclodextrin (mBCD) (36 mM) [48], and colchicine (Col) (200 mM) was employed to determine the role of microtubules and consequently, the significance of pinocytosis [49]. To inhibit all endocytosis routes, sodium azide (NaN3) (500 µM) and 2-Deoxyglucose (DOG) (250 mM) was used.
The following endocytic inhibitors were used: EIPA (5-(N-ethyl-N-isopropyl) amiloride) as an inhibitor of macropinocytosis, chlorpromazine (CPZ) as an inhibitor of a clathrin-mediated endocytosis, and the cholesterol-depleting reagent methyl-beta-cyclodextrin (mBCD) was used to inhibit the caveolae-mediated endocytosis. Finally, colchicine (COL) was applied to inhibit microtubule formation.
A-431 cells were pretreated with the EIPA (500 µM), CPZ (300 µM), mBCD (36 mM), COL (200 mM), NaN3 (500 µM), and DOG (250 mM) for 30 min, followed by treatment with peptides (5 µM) for 90 min. Any significant difference from the control was determined by Student’s t-test (* p < 0.05). Data represent the mean ± standard deviation (SD).The asterisks show a significant difference between the control Pen(desMet) and its derivatives (* p < 0.05, ** p < 0.01, *** p < 0.001).
In addition, the A-431 cells were pretreated with sodium azide (NaN3) and 2-deoxyglucose (DOG) to study the energy-independent pathways. This pretreatment results in ATP depletion and therefore the inhibition of energy-dependent pathways (Figure 3).

Substance | Cellular uptake (in words) (A-431 cells [1]) | Cellular uptake with NaN3 and DOG, % of the untreated control (A-431 cells [2]) | Effect of azide/DOG treatment on cellular uptake (in words) (A-431 cells [2]; NaN3 500 µM and DOG 250 mM pretreatment 30 min)
Cf-RQIKI-azaGly-FQNRRKWKK-NH2 [Trp48aGlyPen(desMet), Cf-labelled Pen(desMet) with Trp48 replaced by aza-glycine] | dramatically decreased the cellular uptake | – | –
Cf-RQIKIGFQNRRKWKK-NH2 [Trp48GlyPen(desMet), Cf-labelled Pen(desMet) with Trp48 replaced by glycine] | dramatically decreased the cellular uptake | – | –
Cf-RQIKIWFQNRRK-azaGly-KK-NH2 [Trp56aGlyPen(desMet)] | – | 97% | did not have any effect
Cf-RQIKIWFQNRRKGKK-NH2 [Trp56GlyPen(desMet)] | – | 50% | –
Cf-RQIKIWFQNRRKWKK-NH2 [Pen(desMet)] | – | 79% | –
